# Laboratory results published in patent publication US6448430B1, “Process for the preparation of aryl carboxylate esters” (priority 1999, dated 2002).
# Assay: Solubility of NOBS in selected solvents
# Type: physicochemical
# Conditions: TFA versus acetic acid; ambient temperature
# From the text: The solvent properties of TFA are unique and highly advantageous in the synthesis of phenolsulfonate esters. […] It is notable that the only solvent in which NOBS is more soluble than water is TFA. I have found no better solvent for NOBS than TFA. This is surprising. […] It is likely that hydrogen bonding in TFA facilitates the solvation of sulfonate anions but it is notable, in contrast, that such effects are much weaker in acetic acid. Furthermore, while it is known in the art that dimethyl sulfoxide (DMSO) and dimethylformamide (DMF) are relatively good solvents for benzenesulfonate esters they are much weaker solvents than TFA and because TFA has a much lower boiling point than these dipolar aprotic solvents it is the only good solvent for benzenesulfonate esters which can be readily stripped from product solutions and then purified and recycled with relative ease.
smiles,measurement,value
"CCCCCCCCC(=O)Oc1ccc(S(=O)(=O)[O-])cc1.[Na+] [NOBS, sodium 4-(nonanoyloxy)benzene sulfonate]",Amount of NOBS dissolved by TFA relative to the amount soluble in acetic acid,more than ten times
